Data set [1] deals with H1650 lung cancer cells. As to the kind of experiment: Cell viability assay (MTT, IC50 determination). The settings on record: Homo sapiens, NCI-H1650; H1650 lung cancer cells, MTT, 48 hours after drug treatment; read-out: H1650 cell viability IC50. It is filed as cell-based. The method, then:
Cell viability assays were performed according to Denizot, F. and R. Lang, Journal of Immunological Methods, 1986. 89(22): p. 271-277. H1650 lung cancer cells were plated at 150,000 cells per well in a 12 well plate. Twenty-four hours after plating, cells were treated as described with increasing concentrations of drug and control. Forty-eight hours after drug treatment, cells were treated with 100 μL of 3-(4,5-Dimethylthiazol-2-yl)-2,5-diphenyltetrazolium bromide (MTT) and incubated for 2 hours at 37 C. The MTT solution was subsequently replaced with 300 μL of n-propyl alcohol and re-aliquoted to a 96 well plate. Spectrophotometric analysis of each solution was performed using a 96 well plate reader at 600 nm in triplicate.

Data set [2] deals with H358 cell line. As to the kind of experiment: In vivo H358 xenograft model, tumor volume (Example 17b). The conditions noted are these: 5 mg/kg BID oral gavage, treatment day 32. The arrangement: species or system BALB/c nu/nu mice. The method, then:
(§1) To evaluate the efficacy of Example 17b in vivo, xenograft model was utilized using the H358 cell line. H358 cells (1×10^7) were injected into the right flank of 6- to 8-week-old male BALB/c nu/nu mice. Mice were randomized to treatment groups based on initial tumor volume. Tumor volume was assessed twice a week by caliper measurement, until volumes reached an average of 200 mm^3. Mice were treated by oral gavage with vehicle control or Example 17b (5 mg/kg) BID. The treatment schedules were initiated, and the mouse tumors were measured every other day for the duration of the study. Mice body weights were recorded weekly and percentage of mice body weights during treatment was calculated as: weight at each time point/initial weight×100.

Data set [3] in a line: In vivo H358 xenograft model: body weights and signs of toxicity (Example 17b). The settings on record: 5 mg/kg BID oral gavage. Details: species or system BALB/c nu/nu mice. The method, then: as §1

As usually defined, the IC50 is the point on the concentration scale where inhibition reaches its midpoint.

Take `O=S(=O)(N[C@H]1CNC[C@@H](N2c3ccccc3Oc3ccccc32)[C@@H]1O)c1ccc(OC(F)(F)F)cc1` [Example 17b, N-((3S,4S,5R)-4-hydroxy-5-(10H-phenoxazin-10-yl)piperidin-3-yl)-4-(trifluoromethoxy)benzenesulfonamide]: the IC50 in data set [1] worked out at 10 µM. In data set [2], the “% T/C (mean tumor volume)” value stood at 55%, the “% T/C (median tumor volume)” value was found to be 54%, the “Inhibition of tumor growth versus vehicle control” value is listed as “statistically significant inhibition of tumor (T) growth versus vehicle control (C)” and the “Mean Tumor Volume (T)” value is listed as 562 mm^3. Further, in data set [2], the “Median Tumor Volume (T)” value was determined as 520 mm^3. Also, in data set [3], the “Signs of toxicity (mucous diarrhea, abdominal stiffness and weight loss)” value was “no adverse signs were observed”; the “Toxicity as judged from animal body weights versus vehicle control” value is “No statistically significant toxicity was observed”. Besides, in data set [3] (H358 xenograft mice), the “% T/C (mean body weight)” value amounted to 100.5%, the “% T/C (median body weight)” value is 99.4%, the Mean body weight was 34.41 g and the Median body weight was determined as 34.1 g.

The record behind these values is patent US10759790B2, “Heterocyclic constrained tricyclic sulfonamides as anti-cancer agents” (ICAHN SCHOOL OF MEDICINE AT MOUNT SINAI, priority 2015, dated 2020).
